Data taken from ChEMBL document CHEMBL5442175, “EUbOPEN Chemogenomics Library - PDSP Secondary Binding” (2024).

Key:
[1] = molecular target: 5-hydroxytryptamine receptor 1B (Homo sapiens, UniProt P28222); experiment: (§1) PDSP Secondary Binding target: HTR1B - Compounds are tested at 10 uM concentration, plate are incubated at room temperature in the dark for 90 minutes. Reaction are stopped by vacuum filtration onto 0.3% polyethyleneimine soaked filter mats using Filtermate harvester. Scintillation cocktail is then melted onto microwave-dried filters on a hot plate and the radio activity is counted in Microbia counter.
[2] = molecular target: Sodium-dependent noradrenaline transporter (Homo sapiens, UniProt P23975); experiment: as §1, with “SLC6A2” for “HTR1B”
[3] = molecular target: Sodium-dependent dopamine transporter (Homo sapiens, UniProt Q01959); experiment: as §1, with “SLC6A3” for “HTR1B”
[4] = molecular target: Kappa-type opioid receptor (Homo sapiens, UniProt P41145); experiment: as §1, with “OPRK1” for “HTR1B”
Mu-type opioid receptor = Mu-type opioid receptor (Homo sapiens, UniProt P35372); experiment: as §1, with “OPRM1” for “HTR1B”
[5] = molecular target: 5-hydroxytryptamine receptor 2B (Homo sapiens, UniProt P41595); experiment: as §1, with “HTR2B” for “HTR1B”
[6] = molecular target: T1, Alpha-2A adrenergic receptor (Homo sapiens, UniProt P08913); experiment: as §1, with “ADRA2A” for “HTR1B”
T1 sequence (P08913 whole entry): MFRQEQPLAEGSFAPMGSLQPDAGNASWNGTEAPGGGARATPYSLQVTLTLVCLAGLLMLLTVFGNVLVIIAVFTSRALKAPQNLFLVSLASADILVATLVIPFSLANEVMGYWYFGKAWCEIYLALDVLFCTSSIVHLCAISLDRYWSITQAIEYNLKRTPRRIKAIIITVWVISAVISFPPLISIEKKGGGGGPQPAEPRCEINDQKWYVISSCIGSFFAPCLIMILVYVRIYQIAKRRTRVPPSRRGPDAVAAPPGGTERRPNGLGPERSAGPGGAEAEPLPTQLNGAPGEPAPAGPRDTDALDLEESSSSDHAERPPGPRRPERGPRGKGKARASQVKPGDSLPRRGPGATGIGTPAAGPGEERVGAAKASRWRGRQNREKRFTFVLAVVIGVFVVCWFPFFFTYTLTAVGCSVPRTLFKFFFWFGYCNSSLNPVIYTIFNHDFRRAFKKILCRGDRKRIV

[7] = molecular target: T2, Alpha-2B adrenergic receptor (Homo sapiens, UniProt P18089); experiment: as §1, with “ADRA2B” for “HTR1B”
T2 sequence (P18089 whole entry): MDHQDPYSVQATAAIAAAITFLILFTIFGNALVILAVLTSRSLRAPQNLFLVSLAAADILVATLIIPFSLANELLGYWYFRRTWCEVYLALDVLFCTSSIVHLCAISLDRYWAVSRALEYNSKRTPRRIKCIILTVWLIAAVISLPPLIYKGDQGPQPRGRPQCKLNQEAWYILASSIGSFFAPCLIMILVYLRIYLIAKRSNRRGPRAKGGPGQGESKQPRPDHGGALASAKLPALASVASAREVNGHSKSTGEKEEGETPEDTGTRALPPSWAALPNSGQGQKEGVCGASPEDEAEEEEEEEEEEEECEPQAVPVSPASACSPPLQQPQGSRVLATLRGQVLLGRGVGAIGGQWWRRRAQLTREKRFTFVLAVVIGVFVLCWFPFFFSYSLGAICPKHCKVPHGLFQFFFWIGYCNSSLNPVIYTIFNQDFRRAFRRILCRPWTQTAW

[8] = molecular target: T3, Alpha-2C adrenergic receptor (Homo sapiens, UniProt P18825); experiment: as §1, with “ADRA2C” for “HTR1B”
T3 sequence (P18825 whole entry): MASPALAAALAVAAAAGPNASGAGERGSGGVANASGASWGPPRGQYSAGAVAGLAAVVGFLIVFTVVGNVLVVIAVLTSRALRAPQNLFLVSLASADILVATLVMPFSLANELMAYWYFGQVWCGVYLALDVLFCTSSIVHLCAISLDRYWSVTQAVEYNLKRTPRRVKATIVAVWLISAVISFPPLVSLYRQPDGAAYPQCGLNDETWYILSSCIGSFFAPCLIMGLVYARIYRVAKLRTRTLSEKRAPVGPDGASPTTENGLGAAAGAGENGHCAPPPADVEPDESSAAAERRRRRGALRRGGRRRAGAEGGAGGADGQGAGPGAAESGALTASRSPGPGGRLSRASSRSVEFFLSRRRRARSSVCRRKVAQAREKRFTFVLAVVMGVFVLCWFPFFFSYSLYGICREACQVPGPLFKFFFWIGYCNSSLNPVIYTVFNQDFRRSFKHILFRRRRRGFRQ

[9] = molecular target: Muscarinic acetylcholine receptor M3 (Homo sapiens, UniProt P20309); experiment: as §1, with “CHRM3” for “HTR1B”
[10] = molecular target: T4, Muscarinic acetylcholine receptor M4 (Homo sapiens, UniProt P08173); experiment: as §1, with “CHRM4” for “HTR1B”
T4 sequence (P08173 whole entry): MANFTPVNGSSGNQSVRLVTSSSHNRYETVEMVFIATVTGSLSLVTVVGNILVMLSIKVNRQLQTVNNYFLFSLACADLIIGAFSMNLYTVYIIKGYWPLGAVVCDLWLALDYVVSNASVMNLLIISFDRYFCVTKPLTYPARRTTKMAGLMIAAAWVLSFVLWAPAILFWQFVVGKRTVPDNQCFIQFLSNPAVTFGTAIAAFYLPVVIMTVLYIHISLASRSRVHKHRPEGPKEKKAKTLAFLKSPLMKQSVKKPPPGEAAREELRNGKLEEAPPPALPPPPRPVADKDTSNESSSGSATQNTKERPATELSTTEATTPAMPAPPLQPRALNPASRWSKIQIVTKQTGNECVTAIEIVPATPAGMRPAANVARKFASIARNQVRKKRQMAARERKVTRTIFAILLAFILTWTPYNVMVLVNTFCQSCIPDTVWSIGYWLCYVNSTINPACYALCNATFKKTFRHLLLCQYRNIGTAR

[11] = molecular target: T5, 5-hydroxytryptamine receptor 3A (Homo sapiens, UniProt P46098); experiment: as §1, with “HTR3A” for “HTR1B”
T5 sequence (P46098 whole entry): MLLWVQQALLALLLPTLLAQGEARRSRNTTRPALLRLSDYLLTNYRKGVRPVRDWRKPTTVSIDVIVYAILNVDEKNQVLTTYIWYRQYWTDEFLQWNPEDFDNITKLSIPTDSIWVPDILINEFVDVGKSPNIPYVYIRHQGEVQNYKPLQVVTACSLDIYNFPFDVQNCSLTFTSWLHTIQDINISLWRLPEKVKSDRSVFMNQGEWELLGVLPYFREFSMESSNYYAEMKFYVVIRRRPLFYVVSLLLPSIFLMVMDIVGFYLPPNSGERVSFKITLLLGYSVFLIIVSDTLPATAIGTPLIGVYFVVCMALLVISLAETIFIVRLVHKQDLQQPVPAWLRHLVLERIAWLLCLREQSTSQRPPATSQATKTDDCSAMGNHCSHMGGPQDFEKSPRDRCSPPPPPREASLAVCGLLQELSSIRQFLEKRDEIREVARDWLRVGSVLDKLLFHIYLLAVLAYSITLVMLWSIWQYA

Histamine H2 receptor = Histamine H2 receptor (Homo sapiens, UniProt P25021); experiment: as §1, with “HRH2” for “HTR1B”
Sequence of Histamine H2 receptor (P25021 whole entry): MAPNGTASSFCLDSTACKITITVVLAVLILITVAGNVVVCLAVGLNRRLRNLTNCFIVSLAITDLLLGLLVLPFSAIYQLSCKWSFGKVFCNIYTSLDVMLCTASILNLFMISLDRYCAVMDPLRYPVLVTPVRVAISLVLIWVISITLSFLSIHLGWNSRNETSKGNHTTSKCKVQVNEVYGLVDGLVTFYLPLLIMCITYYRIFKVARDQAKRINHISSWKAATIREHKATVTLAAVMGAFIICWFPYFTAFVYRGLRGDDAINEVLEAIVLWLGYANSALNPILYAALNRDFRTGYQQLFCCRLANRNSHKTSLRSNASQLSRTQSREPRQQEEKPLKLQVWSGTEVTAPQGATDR

Sequence of Kappa-type opioid receptor (P41145 whole entry): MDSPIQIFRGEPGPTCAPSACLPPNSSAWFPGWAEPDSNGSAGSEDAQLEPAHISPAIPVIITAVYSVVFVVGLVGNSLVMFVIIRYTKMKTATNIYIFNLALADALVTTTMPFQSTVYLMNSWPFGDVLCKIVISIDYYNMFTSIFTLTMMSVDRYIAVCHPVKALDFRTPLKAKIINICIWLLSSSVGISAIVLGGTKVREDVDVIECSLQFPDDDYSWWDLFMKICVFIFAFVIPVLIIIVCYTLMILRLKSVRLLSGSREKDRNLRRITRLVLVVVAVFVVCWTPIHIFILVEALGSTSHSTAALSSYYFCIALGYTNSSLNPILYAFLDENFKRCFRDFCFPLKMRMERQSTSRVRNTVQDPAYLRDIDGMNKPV
Sequence of Mu-type opioid receptor (P35372 whole entry): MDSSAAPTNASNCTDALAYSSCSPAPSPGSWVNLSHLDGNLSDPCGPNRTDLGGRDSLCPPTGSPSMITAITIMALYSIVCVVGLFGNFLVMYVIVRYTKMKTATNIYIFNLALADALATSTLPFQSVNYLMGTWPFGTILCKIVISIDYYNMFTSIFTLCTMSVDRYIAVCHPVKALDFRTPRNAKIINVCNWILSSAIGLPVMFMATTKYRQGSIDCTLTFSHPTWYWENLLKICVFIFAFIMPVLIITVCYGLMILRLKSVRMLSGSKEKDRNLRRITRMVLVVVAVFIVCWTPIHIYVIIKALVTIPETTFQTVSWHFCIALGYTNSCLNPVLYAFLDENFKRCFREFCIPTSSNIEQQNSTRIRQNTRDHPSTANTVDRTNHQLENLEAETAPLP
Sequence of Sodium-dependent noradrenaline transporter (P23975 whole entry): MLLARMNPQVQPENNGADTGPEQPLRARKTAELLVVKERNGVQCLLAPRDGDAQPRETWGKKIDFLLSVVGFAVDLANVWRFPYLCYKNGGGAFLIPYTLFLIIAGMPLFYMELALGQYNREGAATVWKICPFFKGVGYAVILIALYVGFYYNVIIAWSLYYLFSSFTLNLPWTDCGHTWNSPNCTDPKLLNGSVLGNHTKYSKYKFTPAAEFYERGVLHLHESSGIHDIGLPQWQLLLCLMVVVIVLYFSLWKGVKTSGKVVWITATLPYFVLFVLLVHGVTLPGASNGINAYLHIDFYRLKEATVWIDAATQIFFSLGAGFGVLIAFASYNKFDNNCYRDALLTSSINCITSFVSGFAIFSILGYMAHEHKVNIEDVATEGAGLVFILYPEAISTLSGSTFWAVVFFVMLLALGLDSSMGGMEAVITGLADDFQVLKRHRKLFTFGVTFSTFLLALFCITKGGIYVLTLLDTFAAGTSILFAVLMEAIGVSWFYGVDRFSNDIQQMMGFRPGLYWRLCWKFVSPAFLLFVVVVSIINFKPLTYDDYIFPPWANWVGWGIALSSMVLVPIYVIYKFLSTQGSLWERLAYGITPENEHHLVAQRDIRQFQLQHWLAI
Sequence of Muscarinic acetylcholine receptor M3 (P20309 whole entry): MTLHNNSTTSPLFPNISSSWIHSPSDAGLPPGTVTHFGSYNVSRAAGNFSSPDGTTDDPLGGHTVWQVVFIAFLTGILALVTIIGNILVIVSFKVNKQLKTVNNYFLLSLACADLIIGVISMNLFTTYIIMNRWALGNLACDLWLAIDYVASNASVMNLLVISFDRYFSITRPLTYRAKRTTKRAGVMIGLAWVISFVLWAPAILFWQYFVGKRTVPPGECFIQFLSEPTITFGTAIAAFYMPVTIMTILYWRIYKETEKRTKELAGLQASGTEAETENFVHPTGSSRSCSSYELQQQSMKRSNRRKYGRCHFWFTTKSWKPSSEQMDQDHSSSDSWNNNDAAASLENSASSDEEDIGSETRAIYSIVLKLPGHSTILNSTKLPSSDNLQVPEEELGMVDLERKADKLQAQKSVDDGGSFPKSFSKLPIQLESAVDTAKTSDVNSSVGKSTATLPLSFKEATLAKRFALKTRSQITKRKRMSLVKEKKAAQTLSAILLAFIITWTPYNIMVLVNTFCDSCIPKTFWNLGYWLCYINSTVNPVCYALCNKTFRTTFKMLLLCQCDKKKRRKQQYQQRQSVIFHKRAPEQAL
Sequence of 5-hydroxytryptamine receptor 1B (P28222 whole entry): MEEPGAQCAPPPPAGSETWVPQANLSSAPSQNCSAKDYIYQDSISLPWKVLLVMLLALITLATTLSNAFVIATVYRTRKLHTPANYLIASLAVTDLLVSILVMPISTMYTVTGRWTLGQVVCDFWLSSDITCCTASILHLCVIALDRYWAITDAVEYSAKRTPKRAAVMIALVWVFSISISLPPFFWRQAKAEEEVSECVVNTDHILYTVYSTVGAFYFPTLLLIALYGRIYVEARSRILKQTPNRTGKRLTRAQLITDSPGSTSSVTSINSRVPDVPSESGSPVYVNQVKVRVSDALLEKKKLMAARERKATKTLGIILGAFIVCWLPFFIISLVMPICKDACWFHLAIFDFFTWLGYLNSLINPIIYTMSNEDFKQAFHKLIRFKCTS
Sequence of 5-hydroxytryptamine receptor 2B (P41595 whole entry): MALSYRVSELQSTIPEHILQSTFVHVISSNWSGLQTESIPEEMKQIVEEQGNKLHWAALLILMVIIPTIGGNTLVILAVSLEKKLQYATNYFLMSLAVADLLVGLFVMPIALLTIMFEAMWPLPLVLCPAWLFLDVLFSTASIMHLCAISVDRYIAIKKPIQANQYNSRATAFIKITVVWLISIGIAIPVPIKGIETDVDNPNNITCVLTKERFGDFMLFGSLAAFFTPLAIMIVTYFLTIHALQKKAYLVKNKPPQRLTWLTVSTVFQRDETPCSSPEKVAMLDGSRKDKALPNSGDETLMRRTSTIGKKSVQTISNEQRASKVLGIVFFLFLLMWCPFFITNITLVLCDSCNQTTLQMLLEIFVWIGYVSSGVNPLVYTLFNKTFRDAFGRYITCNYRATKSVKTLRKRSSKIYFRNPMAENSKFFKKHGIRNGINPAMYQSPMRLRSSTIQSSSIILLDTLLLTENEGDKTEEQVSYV
Sequence of Sodium-dependent dopamine transporter (Q01959 whole entry): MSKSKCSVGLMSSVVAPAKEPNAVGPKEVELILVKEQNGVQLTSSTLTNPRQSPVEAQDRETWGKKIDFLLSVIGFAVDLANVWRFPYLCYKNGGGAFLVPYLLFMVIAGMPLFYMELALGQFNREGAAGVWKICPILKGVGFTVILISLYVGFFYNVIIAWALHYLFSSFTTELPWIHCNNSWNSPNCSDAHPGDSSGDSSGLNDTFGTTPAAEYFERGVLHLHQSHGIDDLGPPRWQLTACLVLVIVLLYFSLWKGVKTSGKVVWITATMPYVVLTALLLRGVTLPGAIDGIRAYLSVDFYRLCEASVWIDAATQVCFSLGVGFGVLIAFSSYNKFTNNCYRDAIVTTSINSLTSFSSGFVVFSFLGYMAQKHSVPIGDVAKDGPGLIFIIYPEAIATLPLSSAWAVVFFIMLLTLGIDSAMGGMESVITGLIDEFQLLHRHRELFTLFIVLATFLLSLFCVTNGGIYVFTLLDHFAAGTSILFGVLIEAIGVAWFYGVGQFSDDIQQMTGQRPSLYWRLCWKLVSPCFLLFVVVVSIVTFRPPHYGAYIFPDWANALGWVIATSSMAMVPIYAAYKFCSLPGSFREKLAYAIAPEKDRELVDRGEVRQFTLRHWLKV

Compound: CCOC(=O)c1c(C)[nH]c2ccc3c(c12)CN1CCc2cc(OC)ccc2C1O3 (stereo not drawn)
- Ki [1]: 2160 nM
- Ki [2]: 2850 nM
- Ki [3]: 673 nM
- Ki [4]: 1940 nM
- Ki (Mu-type opioid receptor): 1130 nM
- Ki [5]: 500 nM
- Ki [6]: 767 nM
- Ki [7]: 3230 nM
- Ki [8]: 585 nM
- Ki [9]: 173 nM
- Ki [10]: 46.9 nM
- Ki [11]: 1660 nM
- Ki (Histamine H2 receptor): 2840 nM
